Here are results for four compounds from ChEMBL document CHEMBL1201862, “PubChem BioAssay data set” (2004).

What all share (assay): NCI anticancer screen, dose series, 48 h
Test [1] deals with M14.
Test [2] has as its system HCT-116.
Test [3] concerns ACHN.
In test [4] the test system is Malme-3M.
The test system of test [5] is OVCAR-8.
In test [6] the test system is MDA-MB-231.
For test [7], the system named is NCI-H23.
The subject of test [8] is SK-MEL-5.
Test [9] concerns KM12.
The subject of test [10] is LOX IMVI.
Test [11] has as its system NCI-H522.
In test [12] the test system is K562.
In test [13] the test system is PC-3.
The subject of test [14] is SK-MEL-2.
Test [15] deals with MDA-N.
Test [16] has as its system HCT-15.
Test [17] relates to HL-60.
Test [18] concerns DU-145.
For test [19], the system named is A498.
Test [20] relates to OVCAR-4.

The structures appear in SMILES notation.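 Results reflect a 48-hour exposure of cells in 96-well plates to compound at five concentrations. The concentration for 50% growth inhibition is given as GI50.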 Activity calls are given as the source filed them. Cut-off read from the data, not from the text of the source: active = GI50 up to about 1.1 µM and inactive = higher. Bounds are passed on as bounds.

With `COc1nc(N)nc2c1n(C)c[n+]2C`, the GI50 in test [1], in test [2], in test [3], in test [4], in [5] and in [6] was > 100 µM (inactive) each time. The GI50 in test [7], in [8], in test [9], in test [10], in [11] and in test [12] was > 100 µM (inactive) each time. Also, the GI50 in test [13] was > 100 µM (inactive); in [14], > 100 µM (inactive); in test [15], > 100 µM (inactive); in test [16] it was above 100 µM; in test [17], > 100 µM (inactive); in test [18] it was > 100 µM (inactive). In addition, the GI50 in test [19] was > 100 µM (inactive).
Regarding `O=c1oc2ccccc2cc1-c1nc2ccc([N+](=O)[O-])cc2o1`, the GI50 in [1] was > 100 µM (inactive); in test [2] it was > 100 µM (inactive); in [3], 30.1 µM (inactive); in test [4], > 100 µM (inactive); in [5], > 100 µM (inactive); in [6], > 100 µM (inactive). Further, the GI50 in [7], in [8], in test [9], in test [10], in test [11] and in [12] was > 100 µM (inactive) throughout. Further, the GI50 is > 100 µM (inactive) in test [13]; > 100 µM (inactive) in [14]; > 100 µM (inactive) in [15]; above 100 µM in test [16]; > 100 µM (inactive) in test [17]; > 100 µM (inactive) in test [18]. Moreover, the GI50 in test [19] is > 100 µM (inactive).
As to `COc1cc(O)c2c(=O)c(OC)c(-c3ccc4c(c3)OCO4)oc2c1`, the GI50 was > 85.1 µM (inactive) in [1]; > 44.4 µM (inactive) in test [2]; 17.5 µM (inactive) in test [3]; > 100 µM (inactive) in [4]; 6.15 µM (inactive) in test [5]; > 37.3 µM (inactive) in test [6]. In addition, the GI50 in test [7] is > 31.5 µM (inactive); in [8], > 35.6 µM (inactive); in [9], > 100 µM (inactive); in test [10], > 23.2 µM (inactive); in [11], 6.53 µM (inactive); in test [13] it was > 100 µM (inactive). Besides, the GI50 is 59.7 µM (inactive) in test [14]; > 100 µM (inactive) in [15]; above 100 µM in test [16]; > 100 µM (inactive) in test [17]; > 100 µM (inactive) in test [18]; 38.5 µM (inactive) in test [19].
With `CCC1(O)C(=O)OCc2c1cc1n(c2=O)Cc2cc3ccc(C=O)cc3nc2-1` (stereo not given), the GI50 is 1.12 µM (active) in test [1]; 1.34 µM (inactive) in test [2]; 0.713 µM (active) in test [3]; 4.33 µM (inactive) in [4]; 1.96 µM (inactive) in [5]; 22.4 µM (inactive) in test [6]. For the same compound, the GI50 in [7] was 2.07 µM (inactive); in test [8], 1.83 µM (inactive); in test [9], > 86.5 µM (inactive); in test [10], 0.472 µM (active); in test [12], 1.91 µM (inactive); in test [13], 5.53 µM (inactive). Besides, the GI50 in [14] was 13.4 µM (inactive); in [20], 3.33 µM (inactive); in test [15], 5.56 µM (inactive); in test [16], 6.08 µM; in test [17], 1.36 µM (inactive); in test [18], 0.466 µM (active). The GI50 in test [19] was 4.06 µM (inactive).
